“And” between values parts separate entries of the source, which are not always exact repeats. Equal values may be shown once. Read-outs that look alike come from different tables or passages of the source.
Key:
A. calcoaceticus = type: cell-based
E. cloacae = type: cell-based
E. coli = type: cell-based
E. faecalis = type: cell-based; conditions: for MIC, Peptide: unmodified parent peptide
H. influenzae = experiment: Agarose dilution assay (MIC); type: cell-based; conditions: H. influenzae strain HIN002
K. pneumoniae = type: cell-based
P. aeruginosa = type: cell-based
S. epidermidis = type: cell-based
S. maltophilia = type: cell-based
S. marcescens = type: cell-based
S. pneumoniae = experiment: Agarose dilution assay (MIC); type: cell-based; conditions: S. pneumoniae strain SBSPN3
[1] = test system: inherently resistant microorganisms; experiment: microbe, parasite or virus in culture; type: cell-based
[2] = test system: microorganisms with acquired resistance; experiment: microbe, parasite or virus in culture; type: cell-based
[3] = test system: MSSA (Smith, ATCC # 19640); experiment: In vivo efficacy, MSSA infection; set-up: species or system S. aureus; conditions: formulation D, 60 min post-infection, end of eight day observation

## ILRWPWWPWRRK [MBI 11B7CN]
A. calcoaceticus; A. calcoaceticus AC002, unmodified parent peptide
  MIC, Peptide: 2 µg/mL
A. calcoaceticus; A. calcoaceticus strain AC003
  MIC: 32 µg/mL
E. cloacae; E. cloacae ECL007, unmodified parent peptide
  MIC, Peptide: 128 µg/mL
E. cloacae; E. cloacae strain ECL0009
  MIC: 32 µg/mL
E. coli; E. coli ECO005, unmodified parent peptide
  MIC, Peptide: 4 µg/mL
E. coli; E. coli strain ECO002
  MIC: 8 µg/mL
E. faecalis; E. faecalis EFS004
  MIC, Peptide: 8 µg/mL
E. faecalis; E. faecalis EFS008
  MIC, Peptide: 2 µg/mL and 4 µg/mL
E. faecalis; E. faecalis strain EFS004
  MIC: 4 µg/mL
H. influenzae
  MIC: >128 µg/mL
K. pneumoniae; K. pneumoniae KP001, unmodified parent peptide
  MIC, Peptide: 4 µg/mL and 8 µg/mL
K. pneumoniae; K. pneumoniae strain KP0011
  MIC: 32 µg/mL
P. aeruginosa; P. aeruginosa PA004, unmodified parent peptide
  MIC, Peptide: 128 µg/mL
P. aeruginosa; P. aeruginosa strain PA004
  MIC: 128 µg/mL
S. epidermidis; S. epidermidis SE010, unmodified parent peptide
  MIC, Peptide: 2 µg/mL
S. epidermidis; S. epidermidis strain SE003
  MIC: 2 µg/mL
S. maltophilia; S. maltophilia SMA002, unmodified parent peptide
  MIC, Peptide: 16 µg/mL
S. maltophilia; S. maltophilia strain SMA004
  MIC: 128 µg/mL
S. marcescens; S. marcescens SMS003, unmodified parent peptide
  MIC, Peptide: >128 µg/mL
S. marcescens; S. marcescens strain SBSM1
  MIC: >128 µg/mL
S. pneumoniae
  MIC: >128 µg/mL
[1]; P. aeruginosa
  Peptide MIC + Ceftriaxone: 64 µg/mL
[1]; P. aeruginosa, Ceftriaxone section
  Peptide MIC Alone: 128 µg/mL
[1]; S. aureus MRSA
  Peptide MIC + Piperacillin: 2 µg/mL
[1]; S. aureus MRSA, Piperacillin section
  Peptide MIC Alone: 4 µg/mL
[1]; S. maltophilia, Ceftriaxone section
  Peptide MIC Alone: 32 µg/mL
[1]; peptide + Ceftriaxone, P. aeruginosa
  FIC: 0.50
[1]; peptide + Piperacillin, S. aureus MRSA
  FIC: 0.50
[2]; A. baumannii ABI002
  Ceftriaxone MIC + Peptide: 8 µg/mL
  Peptide MIC + Ceftriaxone: 8 µg/mL
[2]; A. baumannii ABI002, Ceftriaxone section
  Peptide MIC Alone: 32 µg/mL
[2]; A. baumannii ABI005
  Ceftriaxone MIC + Peptide: 8 µg/mL
  Peptide MIC + Ceftriaxone: 1 µg/mL
[2]; A. baumannii ABI005, Ceftriaxone section
  Peptide MIC Alone: 16 µg/mL
[2]; H. influenzae 1
  Peptide MIC + Piperacillin: 1 µg/mL
  Piperacillin MIC + Peptide: 8 µg/mL
[2]; H. influenzae 1, Piperacillin section
  Peptide MIC Alone: >128 µg/mL
[2]; S. maltophilia 2
  Peptide MIC + Piperacillin: 8 µg/mL
  Piperacillin MIC + Peptide: 16 µg/mL
[2]; S. maltophilia 2, Piperacillin section
  Peptide MIC Alone: 128 µg/mL
[2]; S. marcescens 1
  Peptide MIC + Piperacillin: 4 µg/mL
  Piperacillin MIC + Peptide: 8 µg/mL
[2]; S. marcescens 1, Piperacillin section
  Peptide MIC Alone: >128 µg/mL
[2]; peptide + Ceftriaxone, A. baumannii ABI002
  FIC: 0.50
[2]; peptide + Ceftriaxone, A. baumannii ABI005
  FIC: 0.56
[2]; peptide + Piperacillin, H. influenzae 1
  FIC: 0.13
[2]; peptide + Piperacillin, S. maltophilia 2
  FIC: 1.00
[2]; peptide + Piperacillin, S. marcescens 1
  FIC: 0.27
[3]; 12 mg/kg ip
  % Survival: 0%
[3]; 18 mg/kg ip
  % Survival: 10%
[3]; 24 mg/kg ip
  % Survival: 60%
